The test system of experiment [1] is A375 (melanoma) cells. The experiment can be described thus: Proliferation Assay (CellTiter-Glo). The format is cell-based. To be noted: 3 days incubation, CellTiter-Glo luminescence. The method, boiled down: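 A375 cells in RPMI-1640 with 10% FBS, plated overnight, then exposed to 10-point 3-fold serial compound dilutions for 3 days at 37° C, 5% CO2. Viability read by CellTiter-Glo luminescence.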

Experiment [2] has as its target ERK2 (Homo sapiens (Human), UniProt P28482). The experiment can be described thus: Active ERK1 and ERK2 Kinase Assay (Mobility Shift Assay). Format: biochemical. To be noted: activated ERK2, Mobility Shift Assay. The gist of the method: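 Mobility shift assay: compound preincubated with activated kinase 30 min at rt in 20 mM HEPES pH 7.5, 0.01% Triton X-100, 2 mM DTT. Reaction started with fluorescent substrate, ATP and metal, run 1 h at rt; activity taken as product ratio P/(P+S) after LabChip peptide separation.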

pIC50: −log10 of the molar value.

ERK2, sequence (P28482 whole entry): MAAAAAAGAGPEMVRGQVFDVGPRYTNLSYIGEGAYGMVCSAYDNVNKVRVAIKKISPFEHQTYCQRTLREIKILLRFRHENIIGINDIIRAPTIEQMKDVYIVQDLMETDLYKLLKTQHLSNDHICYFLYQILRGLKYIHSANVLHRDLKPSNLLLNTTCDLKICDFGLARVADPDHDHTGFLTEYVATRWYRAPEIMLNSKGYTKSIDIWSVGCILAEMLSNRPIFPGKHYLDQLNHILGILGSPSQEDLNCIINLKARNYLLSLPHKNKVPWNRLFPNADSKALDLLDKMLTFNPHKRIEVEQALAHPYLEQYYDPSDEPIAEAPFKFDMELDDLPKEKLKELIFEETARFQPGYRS

`COc1ccc(-c2n[nH]c3ccc(N4CC[C@]5(CCN(CC(=O)N6CC=C(c7ccc(-c8ncn(C)n8)cc7)CC6)C5)C4=O)nc23)cc1OC` [Example 92]: the pIC50 is at least 6.30 in experiment [1] and at least 7.30 in experiment [2].

In the case of `COc1ccc(-c2n[nH]c3ccc(N4CC[C@]5(CCN(CC(=O)N6CC=C(c7ccc(-c8ncn(C)n8)cc7)CC6)C5)C4=O)nc23)nc1OC` [Example 93], the pIC50 in experiment [1] was at least 6.30; in experiment [2], at least 7.30.

Source of the values: patent publication US10934304B2, “Spirocyclic compounds” (Recurium IP Holdings, LLC, priority 2016, dated 2021).
